Measurements published in patent publication EP1509285B1, “SYNERGISTIC COMPOSITION OF TRANS-TETRACOS-15-ENOIC ACID AND APOCYNIN AND USE THEREOF” (COUNCIL OF SCIENTIFIC AND INDUSTRIAL RESEARCH, priority 2002, dated 2003).

Tested on: bile flow and bile solids
Assay: Choleretic activity: bile flow and bile solids after bile duct cannulation in normal anaesthetised rats
Type: in vivo
Conditions: 50 mg kg-1 i.d., bile collected 0-5 hours, mean ±SE
From the text: The liver, by producing bile, plays an important role in digestion. The presence of bile in the intestine is necessary to accomplish the digestion and absorption of fats as well as absorption of the fat-soluble vitamins- A, D, E & K. Bile is also an important vehicle of excretion. It removes many drugs, toxins, bile pigments and various inorganic substances either derived from the diet or synthesized by the body as cholesterol or as cholic acid.
Effect on the liver bile flow of test drug and that of vehicle is carried out after cannulating the bile duct in normal anaesthesied rats. Bile collected is from each animal from 0-5 hours (Klaassen, 1969, Donal et al.1953). (Table 5)

Structure (SMILES): C[C@H](CCC(=O)O)[C@H]1CC[C@H]2[C@@H]3C(=O)C[C@@H]4CC(=O)CC[C@]4(C)[C@H]3CC(=O)[C@]12C [DHC, Dehydrocholic acid, reference compound]
- Bile parameters % Increase (as compared to normal) Bile flow: 38.40±2.76 ml%
- Bile parameters % Increase (as compared to normal) Bile solids: 28.13±3.89 mg%
